From paper PMC7335359, “Design and Synthesis of Dihydroxamic Acids as HDAC6/8/10 Inhibitors” (Chemmedchem, 2020) come the findings set out here.

One experiment has as its target T1, HDAC1 (Homo sapiens, UniProt Q13547).
T1 construct: purchased BPS Bioscience 50051
The experiment is described as follows: HDAC-Glo I/II enzymatic assay, HDAC1. It counts as biochemical. The following applies: read-out: HDAC1 pIC50 (converted). As to the method:
(§1) Inhibitors were tested at eight serial dilutions in triplicate ranging from 50 μM–86,7 pM (HDAC6) or 100 μM–8,67 nM (HDAC1,2,3,8). Drug dosing was performed from 10 mM and 0.1 mM DMSO stock solutions with a D300e Digital Dispenser (Tecan). HDACs (7 ng/mL for HDAC1, 10 ng/mL for HDAC2, 200 ng/mL for HDAC3/Ncor2 complex, 100 ng/mL for HDAC6, 200 ng/mL for HDAC8) and inhibitors were incubated together for 30 min at room temperature. After addition of the HDAC‐Glo™ I/II reagent, plates were shaken (800 rpm orbital shaker, 30 s), centrifuged (300 g, 1 min) and incubated at room temperature for 30 min. Luminescence was detected with a CLARIOstar (BMG Labtech) plate reader.

In another experiment the target is T2, HDAC10 (Homo sapiens, UniProt Q969S8).
T2 sequence (Q969S8 1-669): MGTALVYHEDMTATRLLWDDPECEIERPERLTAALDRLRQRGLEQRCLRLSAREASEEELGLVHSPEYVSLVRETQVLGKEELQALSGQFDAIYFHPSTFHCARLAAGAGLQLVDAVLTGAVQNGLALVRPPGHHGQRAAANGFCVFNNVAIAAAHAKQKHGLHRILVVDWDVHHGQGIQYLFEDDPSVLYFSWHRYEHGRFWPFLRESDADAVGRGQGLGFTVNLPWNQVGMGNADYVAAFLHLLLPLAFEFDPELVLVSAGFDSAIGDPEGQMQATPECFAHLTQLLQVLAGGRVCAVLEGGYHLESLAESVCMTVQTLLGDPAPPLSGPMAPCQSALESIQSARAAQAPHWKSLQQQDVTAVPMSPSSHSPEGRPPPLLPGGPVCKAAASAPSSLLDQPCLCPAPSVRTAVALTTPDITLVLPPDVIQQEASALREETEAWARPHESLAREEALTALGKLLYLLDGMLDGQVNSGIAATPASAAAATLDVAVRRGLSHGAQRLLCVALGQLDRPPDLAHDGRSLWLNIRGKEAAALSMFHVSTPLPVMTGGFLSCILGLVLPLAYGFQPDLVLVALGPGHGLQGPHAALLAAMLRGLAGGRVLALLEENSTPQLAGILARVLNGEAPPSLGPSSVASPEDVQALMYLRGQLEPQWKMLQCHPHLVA
The experiment is described as follows: ligand displacement TR-FRET assay, HDAC10. It counts as binding. Also on record: host or cells: Sf21 insect cells (baculovirus). The note with it: for IC50: ligand-displacement FRET assay, read-out: HDAC10 pIC50 (converted). How it is done: Expression and purification of TwinStrepII‐GST‐HDAC10: A synthetic gene encoding TwinStrepII‐GST‐HDAC10 (human) was ordered from GeneArt (Thermo Fischer Scientific) and subcloned into the pFastBac1 vector. The resulting construct was used for transposition in E. coli DH10EMBacY cells. The isolated bacmid DNA was then used to generate the recombinant baculovirus. For protein expression, 10 mL of baculovirus was added to 1 L of Sf21 cells at a density of 1×10^6 cells/mL. The infected Sf21 cells were grown for 72 h in Sf‐900 III SFM medium (Thermo Fischer Scientific) at 27 °C. Cells were harvested by centrifugation and re‐suspended in running buffer (100 mM Tris pH 8.0, 150 mM NaCl, 1 mM EDTA and 1 mM DTT) supplemented with 10 mM MgCl2, benzonase and cOmplete protease inhibitors (Merck). […] The clarified lysate was then loaded onto a 5 mL Strep‐Tactin Superflow high capacity column (IBA) pre‐equilibrated in running buffer. After sample loading and washing, the TwinStrepII‐GST‐HDAC10 protein was eluted in running buffer supplemented with 5 mM desthiobiotin (IBA). The elution fractions containing TwinStrepII‐GST‐HDAC10 were pooled and concentrated before being injected onto a HiLoad 16/600 Superdex 200 pg size exclusion chromatography column (GE Healthcare) pre‐equilibrated with 25 mM HEPES/NaCl pH 7.5, 150 mM NaCl, 0.5 mM EDTA, 1 mM DTT and 10 % glycerol. Samples were eluted from the size exclusion chromatography column in the same buffer, flash‐frozen in liquid N2 and stored at −80 °C.
The TR‐FRET measurements of the monohydroxamic acids in this manuscript were measured in the original assay format, which is described directly below this paragraph. The TR‐FRET measurements of the dihydroxamic acids in this manuscript were measured in the modified format, which is described two paragraphs below this one.
The concentrations of reagents in 10 μL final assay volume were 3 nM GST‐HDAC10, 30 nM “Tubastatin‐Alexa647‐Tracer” and 0.5 nM Eu‐anti‐GST. GST‐HDAC10 and LanthaScreen™ Eu‐anti‐GST Antibody were purchased from Life Technologies, and the Tubastatin‐Alexa647‐Tracer was synthesized in‐house as previously described.19 An 11‐fold 1 : 3‐serial dilution of compounds starting at 2 mM was prepared in 384 well pp‐plates (Greiner) from 10 mM stocks in DMSO and 1 μL was transferred to assay plates. Nine μL of the reagent‐mix was added and the plate was incubated for 1 h at RT before TR‐FRET was measured in an EnVision™ plate reader equipped with a TR‐FRET Laser module. […] Percent inhibition was calculated for each well from negative control wells containing 2 % DMSO and positive control wells containing 20 μM SAHA. The resulting dose‐response curves were fitted in ActivityBase (IDBS) using a four‐parameter logistic model and pIC50‐values were calculated.
After drug dosing to the premixed assay reagents in buffer, plates were shaken (800 rpm orbital shaker, 30 s), centrifuged (300 g, 1 min) and incubated at room temperature in the dark for 60 min. TR‐FRET was measured with a CLARIOstar (BMG Labtech) plate reader, equipped with TR‐FRET filters.
(In TR-FRET formats the signal depends on donor and acceptor labels being close together.)

Another experiment has as its target T3, HDAC8 (Homo sapiens, UniProt Q9BY41).
T3 construct: purchased BPS Bioscience 50008
T3 sequence (Q9BY41 1-377): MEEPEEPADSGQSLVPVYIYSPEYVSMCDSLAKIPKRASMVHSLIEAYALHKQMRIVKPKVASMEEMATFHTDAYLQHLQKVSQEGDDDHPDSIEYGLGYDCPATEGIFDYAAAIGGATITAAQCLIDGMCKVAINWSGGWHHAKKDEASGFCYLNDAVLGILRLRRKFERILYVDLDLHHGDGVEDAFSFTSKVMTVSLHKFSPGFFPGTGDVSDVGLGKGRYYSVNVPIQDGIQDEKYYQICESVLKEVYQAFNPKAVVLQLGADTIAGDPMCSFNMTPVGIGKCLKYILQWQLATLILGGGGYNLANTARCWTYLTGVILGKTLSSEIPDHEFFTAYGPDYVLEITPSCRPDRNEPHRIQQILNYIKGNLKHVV
The experiment is described as follows: HDAC-Glo I/II enzymatic assay, HDAC8. It counts as biochemical. The note with it: read-out: HDAC8 pIC50 (converted). How it is done:
as §1

A further experiment deals with T4, HDAC2 (Homo sapiens, UniProt Q92769).
T4 construct: purchased BPS Bioscience 50002
The experiment is described as follows: HDAC-Glo I/II enzymatic assay, HDAC2. It counts as biochemical. The note with it: read-out: HDAC2 pIC50 (converted). How it is done:
as §1

Structures are written as SMILES.

T4 sequence (Q92769 whole entry): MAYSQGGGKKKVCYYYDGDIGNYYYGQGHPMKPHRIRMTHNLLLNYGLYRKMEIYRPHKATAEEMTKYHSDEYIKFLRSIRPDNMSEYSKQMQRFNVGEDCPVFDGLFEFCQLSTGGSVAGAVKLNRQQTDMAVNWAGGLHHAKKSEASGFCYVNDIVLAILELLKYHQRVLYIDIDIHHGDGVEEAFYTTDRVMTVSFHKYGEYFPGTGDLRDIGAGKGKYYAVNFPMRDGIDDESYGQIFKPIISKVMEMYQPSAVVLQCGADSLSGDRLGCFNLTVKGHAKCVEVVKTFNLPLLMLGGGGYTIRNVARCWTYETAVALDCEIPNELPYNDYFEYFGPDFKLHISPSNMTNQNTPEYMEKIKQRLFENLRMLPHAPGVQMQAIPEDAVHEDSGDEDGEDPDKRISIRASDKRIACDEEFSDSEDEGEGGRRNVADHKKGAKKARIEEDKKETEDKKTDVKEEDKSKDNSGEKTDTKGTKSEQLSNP
T1 sequence (Q13547 whole entry): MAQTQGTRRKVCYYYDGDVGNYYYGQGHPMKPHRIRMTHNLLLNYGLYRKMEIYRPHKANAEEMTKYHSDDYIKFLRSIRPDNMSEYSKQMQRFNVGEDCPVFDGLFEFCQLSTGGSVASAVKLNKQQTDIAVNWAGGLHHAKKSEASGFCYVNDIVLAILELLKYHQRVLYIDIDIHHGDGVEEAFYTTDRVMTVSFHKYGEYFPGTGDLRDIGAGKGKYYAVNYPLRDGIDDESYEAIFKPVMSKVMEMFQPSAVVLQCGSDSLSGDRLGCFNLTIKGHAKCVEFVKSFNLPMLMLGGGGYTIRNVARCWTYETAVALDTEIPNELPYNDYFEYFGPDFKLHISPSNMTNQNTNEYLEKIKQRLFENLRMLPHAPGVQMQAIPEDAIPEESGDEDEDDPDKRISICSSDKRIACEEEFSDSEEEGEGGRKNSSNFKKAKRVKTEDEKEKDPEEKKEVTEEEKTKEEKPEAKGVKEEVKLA

As to `CN(C)CCn1cc(Cc2ccc(C(=O)NO)cc2)c2cc(C(=O)NO)ccc21` [Compound 3e], the IC50 on HDAC1 was 813 nM; on HDAC10 it was 3.02 nM; at HDAC8, 66.1 nM; on HDAC2 it was 7080 nM.

In the case of `CN1CCc2c(c3ccc(C(=O)NO)cc3n2Cc2ccc(C(=O)NO)cc2)C1` [Compound 3c], the IC50 is 501 nM at HDAC1, 12.3 nM at HDAC10, 513 nM on HDAC8 and 4170 nM at HDAC2.

Consider `CN(C)Cc1cn(Cc2ccc(C(=O)NO)cc2)c2cc(C(=O)NO)ccc12` [Compound 3b], for which the IC50 was 617 nM at HDAC1, 2.82 nM on HDAC10, 166 nM at HDAC8 and 5370 nM at HDAC2.

In the case of `O=C(NO)c1ccc(Cn2ccc3ccc(C(=O)NO)cc32)cc1` [Compound 3a], the IC50 at HDAC1 is 263 nM; at HDAC10, 2.57 nM; on HDAC8, 67.6 nM; on HDAC2 it was 2240 nM.

Regarding `O=C(NO)c1ccc(Cn2ncc3ccc(C(=O)NO)cc32)cc1` [Compound 3f], the IC50 is 87.1 nM at HDAC1, 3.39 nM at HDAC10, 42.7 nM on HDAC8 and 724 nM at HDAC2. In addition, at HDAC10 (FRET assay, 3f versus 1f), the “increase in HDAC10 potency over the monohydroxamic acid 1f” value is roughly 70 factor.

For `CN(C)Cc1nn(Cc2ccc(C(=O)NO)cc2)c2cc(C(=O)NO)ccc12` [Compound 3g], the IC50 at HDAC1 is 661 nM; on HDAC10 it was 3.98 nM; at HDAC8, 89.1 nM; on HDAC2 it was 9550 nM.

On to `O=C(NO)c1ccc(Cc2c[nH]c3ccc(C(=O)NO)cc23)cc1` [Compound 3d], for which the IC50 at HDAC1 was 525 nM; on HDAC10, 3.24 nM; at HDAC8, 97.7 nM; at HDAC2, 4680 nM.

For `CN(C)Cc1nn(Cc2ccc(C(=O)NO)cc2)c2ccccc12` [Compound 1g], the IC50 on HDAC10 was 19.5 nM; on HDAC8, 851 nM.
